Assay results reported in EP0295827A2, “Use of 24,25-dihydroxy-cholecalciferol in mending bone fractures” (priority 1987, dated 1988).

Legend:
Type in all cases: in vivo
Parameters in all cases: key: ↓: Decreased; →: No change; ↑: Increased
ICR mice [1] = assay: 30-day repeated oral administration: general blood test; settings: 30 days, vs control group
Protocol: (§1) 24R,25-(OH)₂-D₃ was dissolved in 1% ethanol containing Panacate 810 to a predetermined concentration and the resultant solution was forcibly and orally administered to 5-week-old male or female ICR mice for 30 days in succession so that the does might become to 10 µg/kg/day, 100 µg/kg/day and 1,000 µg/kg/day, respectively. The thus treated mice were compared with a group of mice to which only the solvent had been administered in the following test items.

ICR mice [2] = assay: 30-day repeated oral administration: biochemical serum test; settings: 30 days, vs control group
Protocol: as §1

ICR mice [3] = assay: 30-day repeated oral administration: urine analysis; settings: female, 10 μg/kg oral, 30 days, vs control group
Protocol: as §1

Amount of hemoglobin (ICR mice [1]; female, 10 μg/kg·day oral): →
Homatocrit (ICR mice [1]; female, 10 μg/kg·day oral): →
Number of erythrocyte (ICR mice [1]; female, 10 μg/kg·day oral): →
Number of leucocyte (ICR mice [1]; female, 10 μg/kg·day oral): →
Amount of hemoglobin (ICR mice [1]; female, 100 μg/kg·day oral): →
Homatocrit (ICR mice [1]; female, 100 μg/kg·day oral): →
Number of erythrocyte (ICR mice [1]; female, 100 μg/kg·day oral): →
Number of leucocyte (ICR mice [1]; female, 100 μg/kg·day oral): →
Amount of hemoglobin (ICR mice [1]; female, 1000 μg/kg·day oral): →
Homatocrit (ICR mice [1]; female, 1000 μg/kg·day oral): →
Number of erythrocyte (ICR mice [1]; female, 1000 μg/kg·day oral): →
Number of leucocyte (ICR mice [1]; female, 1000 μg/kg·day oral): →
Amount of hemoglobin (ICR mice [1]; male, 10 μg/kg·day oral): →
Homatocrit (ICR mice [1]; male, 10 μg/kg·day oral): →
Number of erythrocyte (ICR mice [1]; male, 10 μg/kg·day oral): →
Number of leucocyte (ICR mice [1]; male, 10 μg/kg·day oral): →
Amount of hemoglobin (ICR mice [1]; male, 100 μg/kg·day oral): →
Homatocrit (ICR mice [1]; male, 100 μg/kg·day oral): →
Number of erythrocyte (ICR mice [1]; male, 100 μg/kg·day oral): →
Number of leucocyte (ICR mice [1]; male, 100 μg/kg·day oral): →
Amount of hemoglobin (ICR mice [1]; male, 1000 μg/kg·day oral): →
Homatocrit (ICR mice [1]; male, 1000 μg/kg·day oral): →
Number of erythrocyte (ICR mice [1]; male, 1000 μg/kg·day oral): →
Number of leucocyte (ICR mice [1]; male, 1000 μg/kg·day oral): →
A/G (ICR mice [2]; female, 10 µg/kg·day oral): →
ALP (ICR mice [2]; female, 10 µg/kg·day oral): →
Aℓb (ICR mice [2]; female, 10 µg/kg·day oral): →
BUN (ICR mice [2]; female, 10 µg/kg·day oral): →
Ca (ICR mice [2]; female, 10 µg/kg·day oral): →
GOT (ICR mice [2]; female, 10 µg/kg·day oral): →
GPT (ICR mice [2]; female, 10 µg/kg·day oral): →
Gℓu (ICR mice [2]; female, 10 µg/kg·day oral): →
I-P (ICR mice [2]; female, 10 µg/kg·day oral): →
LDH (ICR mice [2]; female, 10 µg/kg·day oral): →
T-Biℓ (ICR mice [2]; female, 10 µg/kg·day oral): →
T-CHO (ICR mice [2]; female, 10 µg/kg·day oral): →
T-P (ICR mice [2]; female, 10 µg/kg·day oral): →
A/G (ICR mice [2]; female, 100 µg/kg·day oral): →
ALP (ICR mice [2]; female, 100 µg/kg·day oral): →
Aℓb (ICR mice [2]; female, 100 µg/kg·day oral): →
BUN (ICR mice [2]; female, 100 µg/kg·day oral): →
Ca (ICR mice [2]; female, 100 µg/kg·day oral): →
GOT (ICR mice [2]; female, 100 µg/kg·day oral): →
GPT (ICR mice [2]; female, 100 µg/kg·day oral): →
Gℓu (ICR mice [2]; female, 100 µg/kg·day oral): →
I-P (ICR mice [2]; female, 100 µg/kg·day oral): →
LDH (ICR mice [2]; female, 100 µg/kg·day oral): →
T-Biℓ (ICR mice [2]; female, 100 µg/kg·day oral): →
T-CHO (ICR mice [2]; female, 100 µg/kg·day oral): →
T-P (ICR mice [2]; female, 100 µg/kg·day oral): →
A/G (ICR mice [2]; female, 1000 µg/kg·day oral): →
ALP (ICR mice [2]; female, 1000 µg/kg·day oral): →
Aℓb (ICR mice [2]; female, 1000 µg/kg·day oral): →
BUN (ICR mice [2]; female, 1000 µg/kg·day oral): →
Ca (ICR mice [2]; female, 1000 µg/kg·day oral): →
GOT (ICR mice [2]; female, 1000 µg/kg·day oral): →
GPT (ICR mice [2]; female, 1000 µg/kg·day oral): →
Gℓu (ICR mice [2]; female, 1000 µg/kg·day oral): →
I-P (ICR mice [2]; female, 1000 µg/kg·day oral): →
LDH (ICR mice [2]; female, 1000 µg/kg·day oral): →
T-Biℓ (ICR mice [2]; female, 1000 µg/kg·day oral): →
T-CHO (ICR mice [2]; female, 1000 µg/kg·day oral): →
T-P (ICR mice [2]; female, 1000 µg/kg·day oral): →
A/G (ICR mice [2]; male, 10 µg/kg·day oral): →
ALP (ICR mice [2]; male, 10 µg/kg·day oral): →
Aℓb (ICR mice [2]; male, 10 µg/kg·day oral): →
BUN (ICR mice [2]; male, 10 µg/kg·day oral): →
Ca (ICR mice [2]; male, 10 µg/kg·day oral): →
GOT (ICR mice [2]; male, 10 µg/kg·day oral): →
GPT (ICR mice [2]; male, 10 µg/kg·day oral): →
Gℓu (ICR mice [2]; male, 10 µg/kg·day oral): →
I-P (ICR mice [2]; male, 10 µg/kg·day oral): →
LDH (ICR mice [2]; male, 10 µg/kg·day oral): →
T-Biℓ (ICR mice [2]; male, 10 µg/kg·day oral): →
T-CHO (ICR mice [2]; male, 10 µg/kg·day oral): →
T-P (ICR mice [2]; male, 10 µg/kg·day oral): →
A/G (ICR mice [2]; male, 100 µg/kg·day oral): →
ALP (ICR mice [2]; male, 100 µg/kg·day oral): →
Aℓb (ICR mice [2]; male, 100 µg/kg·day oral): →
BUN (ICR mice [2]; male, 100 µg/kg·day oral): →
Ca (ICR mice [2]; male, 100 µg/kg·day oral): →
GOT (ICR mice [2]; male, 100 µg/kg·day oral): →
GPT (ICR mice [2]; male, 100 µg/kg·day oral): →
Gℓu (ICR mice [2]; male, 100 µg/kg·day oral): →
I-P (ICR mice [2]; male, 100 µg/kg·day oral): →
LDH (ICR mice [2]; male, 100 µg/kg·day oral): →
T-Biℓ (ICR mice [2]; male, 100 µg/kg·day oral): →
T-CHO (ICR mice [2]; male, 100 µg/kg·day oral): →
T-P (ICR mice [2]; male, 100 µg/kg·day oral): →
A/G (ICR mice [2]; male, 1000 µg/kg·day oral): →
ALP (ICR mice [2]; male, 1000 µg/kg·day oral): →
Aℓb (ICR mice [2]; male, 1000 µg/kg·day oral): →
BUN (ICR mice [2]; male, 1000 µg/kg·day oral): ↓
Ca (ICR mice [2]; male, 1000 µg/kg·day oral): →
GOT (ICR mice [2]; male, 1000 µg/kg·day oral): →
GPT (ICR mice [2]; male, 1000 µg/kg·day oral): →
Gℓu (ICR mice [2]; male, 1000 µg/kg·day oral): ↓
I-P (ICR mice [2]; male, 1000 µg/kg·day oral): →
LDH (ICR mice [2]; male, 1000 µg/kg·day oral): ↓
T-Biℓ (ICR mice [2]; male, 1000 µg/kg·day oral): ↓
T-CHO (ICR mice [2]; male, 1000 µg/kg·day oral): →
T-P (ICR mice [2]; male, 1000 µg/kg·day oral): →
Ketone body (ICR mice [3]): →
Structure (SMILES): C=C1CC[C@H](O)C/C1=C/C=C1\CCC[C@]2(C)[C@@H]([C@H](C)CC[C@@H](O)C(C)(C)O)CC[C@@H]12 [24R,25-(OH)₂-D₃]
